Results from patent publication US8227207B2, “Bioactive peptides derived from the proteins of egg white by means of enzymatic hydrolysis” (Consejo Superior de Investigaciones Cientifcas, priority 2004, dated 2012).
“Also recorded” adds a separate entry of the source. Residues, ends and D or L forms follow the SMILES beside them.

How the values were obtained:
[1] = test system: spontaneously hypertensive rats (SHR); experiment: Antihypertensive activity: systolic arterial pressure (tail cuff) in spontaneously hypertensive rats; assay type: in vivo, rat
Procedure: (§1) The effect is studied of various identified peptides and of some products containing them (for example egg white hydrolysed with pepsin for 3 hours and the fraction of it less than 3000 Da) on the arterial pressure of spontaneously hypertensive rats (SHR) and Wistar-Kyoto rats (WKY) which are the normotense controls for the SHR.
(§2) This study is conducted with SHR (10) and WKY of 17-24 weeks old and weight between 300 and 350 g, coming from Charles River Laboratories España, S. A. The rats are kept in cages of five by five and maintained at a stable temperature of 25° C. with light-dark cycles of 12 hours, ingesting freely available water and food. In order to carry out the measurement of systolic arterial pressure (SAP) “tail cuff” equipment is used (Le5001, Letica) which automatically provides a digital value of the SAP and records and facilitates the cardiac frequency of the animals. Various measurements are made and the average of all of them is obtained in order to achieve a reliable value of the SAP. Before positioning the cuff and transducer in the tail of the rats, the rats are exposed to a temperature of close to 30° C. in order to facilitate dilation of the caudal artery. Also, in order to ensure the reliability of the measurement, the animals are made to get used to the procedure for two weeks prior to conducting each assay in question.
(§3) The administration of the products to be assayed is done by means of an intragastric probe in a time margin of between 9 and 10 o'clock in the morning. The SHR used for the study had SAP values of between 230 and 280 mm Hg. The WKY used for the study at that moment had SAP values of between 160 and 200 mm Hg. Measurements of the SAP were taken from the animals periodically, every 2 hours, up to 8 hours post-administration of the products to be assayed; in addition, a SAP measurement was taken 24 hours after the administration of those products. As negative control (in order to establish the circadian variation of the SAP in probed rats) the measurements of the SAP obtained in rats which had been administered 1 ml of water by means of intragastric probe were used. As positive control, the measurements of the SAP obtained in rats which had been administered 50 mg/kg of Captopril (prototype ACEI drug) by means of intragastric probe were used. This dose of Captopril was administered to each rat in a volume of 1 ml. In order to establish the effect of the unhydrolysed egg white on the arterial pressure of the animals, similar assays to those described above were conducted, in which the animals were treated by the same procedure with 200 mg/kg of previously freeze-dried egg white (reference).
The results obtained are grouped and the mean±the standard error of measurement (SEM) is obtained for a minimum of 9 homogenous assays. The data of the treated animals are always compared with the data deemed to be a negative control. In order to compare them and obtain the statistical significance, Student's t-test for unpaired data is used and the difference for values of p<0.05 is considered significant.

Wistar-Kyoto rats (WKY) [2] = experiment: Systolic arterial pressure (tail cuff) in normotense Wistar-Kyoto rats; assay type: in vivo, rat; settings: highest dose used, intragastric probe
Procedure: as §1, §2, §3
The results obtained are grouped and the mean±the standard error of measurement (SEM) is obtained for a minimum of 9 homogenous assays. […]

Wistar-Kyoto rats (WKY) [3] = experiment: Effect on systolic arterial pressure (SAP) in normotense Wistar-Kyoto rats; assay type: in vivo, rat; settings: intragastric probe, highest dose used: SEQ. ID. No 6 and 3 2 mg/kg, SEQ. ID. No 2 4 mg/kg, Captopril 50 mg/kg
Procedure: (§4) The effect is studied of various identified peptides and of some products containing them (for example egg white hydrolysed with pepsin for 3 hours and the fraction of it less than 3000 Da) on the arterial pressure of spontaneously hypertensive rats (SHR) and Wistar-Kyoto rats (WKY) which are the normotense controls for the SHR. This study is conducted with SHR (10) and WKY of 17-24 weeks old and weight between 300 and 350 g, coming from Charles River Laboratories […]. The rats are kept in cages of five by five and maintained at a stable temperature of 25° C. with light-dark cycles of 12 hours, ingesting freely available water and food. In order to carry out the measurement of systolic arterial pressure (SAP) “tail cuff” equipment is used (Le5001, Letica) which automatically provides a digital value of the SAP and records and facilitates the cardiac frequency of the animals. Various measurements are made and the average of all of them is obtained in order to achieve a reliable value of the SAP. Before positioning the cuff and transducer in the tail of the rats, the rats are exposed to a temperature of close to 30° C. in order to facilitate dilation of the caudal artery. Also, in order to ensure the reliability of the measurement, the animals are made to get used to the procedure for two weeks prior to conducting each assay in question. The administration of the products to be assayed is done by means of an intragastric probe in a time margin of between 9 and 10 o'clock in the morning. The SHR used for the study had SAP values of between 230 and 280 mm Hg. The WKY used for the study at that moment had SAP values of between 160 and 200 mm Hg. Measurements of the SAP were taken from the animals periodically, every 2 hours, up to 8 hours post-administration of the products to be assayed; in addition, a SAP measurement was taken 24 hours after the administration of those products. As negative control (in order to establish the circadian variation of the SAP in probed rats) the measurements of the SAP obtained in rats which had been administered 1 ml of water by means of intragastric probe were used. […] This dose of Captopril was administered to each rat in a volume of 1 ml. In order to establish the effect of the unhydrolysed egg white on the arterial pressure of the animals, similar assays to those described above were conducted, in which the animals were treated by the same procedure with 200 mg/kg of previously freeze-dried egg white (reference). The results obtained are grouped and the mean±the standard error of measurement (SEM) is obtained for a minimum of 9 homogenous assays. The data of the treated animals are always compared with the data deemed to be a negative control. […]

[4] = test system: spontaneously hypertensive rats (SHR); experiment: Anti-hypertensive activity, systolic arterial pressure (SAP), in spontaneously hypertensive rats; assay type: in vivo, rat; settings: oral, intragastric probe, Captopril 50 mg/kg, SEQ. ID. No 6 and 3 0.5-2 mg/kg, SEQ. ID. No 2 1-4 mg/kg
Procedure: as §4

[5] = test system: spontaneously hypertensive rats (SHR); settings: ovokinin oral 100 mg/kg, ovokinin (2-7) 10 mg/kg; cited from earlier work
[6] = test system: spontaneously hypertensive rats (SHR); settings: literature, cited from earlier work; for anti-hypertensive activity relative to ovokinin (2-7): following administration to SHRs
[7] = test system: angiotensin converting enzyme (ACE); settings: result in words, literature; cited from earlier work
[8] = test system: angiotensin converting enzyme (ACE) (EC 3.4.15.1, Sigma); experiment: In vitro inhibitory activity of the angiotensin converting enzyme (ACEI activity); assay type: biochemical; settings: result in words
Procedure: Measurement of the Inhibitory Activity of the Angiotensin Converting Enzyme (ACEI Activity)
The inhibitory activity of the angiotensin converting enzyme (ACE) is measured in vitro according to the method of D. W. Cushman and H. S. Cheung (Spectrophotometric assay and properties of the angiotensin-converting enzyme of rabbit lung. Biochemical Pharmacology, 1971, 20: 1637-1648), later on modified by Y. K. Kim, S. Yoon, D. Y. Yu, B. Lönnerdal and B. H. Cheung (Novel angiotensin-I-converting enzyme inhibitory peptides derived from recombinant human αs1-casein expressed in Escherichia coli, Journal of Dairy Research 1999, 66, 431-439).
The substrate hippuryl histidyl leucine (HHL, Sigma Chemicals Co., St. Louis, Mo., USA) is dissolved in a 0.1 M borate buffer with 0.3 M NaCl pH 8.3 to obtain a final concentration of 5 mM. To 100 μl of substrate are added 40 μl of each of the samples whose ACEI activity it is wished to determine. The ACE enzyme (EC 3.4.15.1, Sigma) is added, dissolved in 50% glycerol and diluted 1/10 in bidistilled water at the moment of conducting the assay. The reaction is carried out at 37° C. for 30 minutes in a water-bath. The enzyme is deactivated by lowering the pH with 150 μl of 1 N HCl. The hippuric acid formed is extracted with 1000 μl of ethyl acetate. Following vortex stirring for 20 seconds, it is centrifuged at 4000 rpm for 10 minutes at room temperature. 750 μl of the organic phase are taken and evaporated by heating at 95° C. for 10 minutes. The hippuric acid residue is redissolved in 800 μl of bidistilled water and, following stirring for 20 seconds, the absorbency at 228 nm is measured in a Dur-70 spectrophotometer from Beckman Instruments, Inc., Fullerton, USA.
In order to calculate the percentage of ACEI activity, the following formula is used
The blank is used for correcting the background absorbency. This contains substrate, enzyme and 20 μl of bidistilled water in place of the sample, and the reaction is halted at zero time. The control implies a hundred percent of the enzymatic action on the substrate in the absence of inhibitors and contains 20 μl of water in place of the sample and is incubated the same time as the sample.
The results are presented as the IC50 (μM or μg/ml) or concentration at which 50% of the enzyme's activity is inhibited. The concentration of protein is determined by means of the bicinchonomic acid (BCA) assay (Pierce, Rockford, Ill., USA) using bovine seroalbumin as reference.

## C[C@H](CS)C(=O)N1CCC[C@H]1C(=O)O [Captopril, reference compound]
[1]; intragastric probe
  time of maximum drop in SAP after administration: 6 h
[1]; single administration by intragastric probe
  drop in systolic arterial pressure (SAP) / anti-hypertensive activity (in words): pronounced drop in SAP
Wistar-Kyoto rats (WKY) [2]
  change in SAP in normotense rats (in words): none of these compounds modifies the SAP
Wistar-Kyoto rats (WKY) [3]
  effect on SAP: none of these compounds modifies the SAP of WKY rats
[4]
  anti-hypertensive activity / drop in SAP: pronounced drop in SAP in the SHR

## CC(C)C[C@H](N)C(=O)N[C@@H](Cc1c[nH]c2ccccc12)C(=O)O [LW]
[5]
  anti-hypertensive / vasodilatory activity in SHR (in words): displayed anti-hypertensive activity
[6]; SHR, ovokinin orally 100 mg/kg
  anti-hypertensive activity: displayed anti-hypertensive activity in spontaneously hypertensive rats (SHR)

## N=C(N)NCCC[C@H](N)C(=O)N1CCC[C@H]1C(=O)N[C@@H](Cc1ccccc1)C(=O)N[C@@H](Cc1cnc[nH]1)C(=O)N1CCC[C@H]1C(=O)N[C@@H](Cc1ccccc1)C(=O)O [RPFHPF] (H-RPFHPF-OH)
[6]; SHR
  minimum effective dose: 1 mg/kg
[6]
  anti-hypertensive activity relative to ovokinin (2-7): 10 times
[7]
  ACEI activity: neither ovokinin (2-7), nor its RPFHPF (SEQ. ID. NO: 10) or RPLKPW (SEQ. ID. NO: 11) derivatives possessed ACEI activity

## CC(C)C[C@H](NC(=O)[C@@H]1CCCN1C(=O)[C@@H](N)CCCNC(=N)N)C(=O)N[C@@H](CCCCN)C(=O)N1CCC[C@H]1C(=O)N[C@@H](Cc1c[nH]c2ccccc12)C(=O)O [RPLKPW] (H-RPLKPW-OH)
[6]; SHR
  minimum effective dose: 0.1 mg/kg
[6]
  anti-hypertensive activity relative to ovokinin (2-7): 100 times
[7]
  ACEI activity: neither ovokinin (2-7), nor its RPFHPF (SEQ. ID. NO: 10) or RPLKPW (SEQ. ID. NO: 11) derivatives possessed ACEI activity

## CC[C@H](C)[C@H](N)C(=O)N[C@H](C(=O)N[C@@H](Cc1ccccc1)C(=O)O)C(C)C [SEQ. ID. No 2, IVF]
[8]
  ACEI activity in vitro: potent ACEI activity in vitro
Wistar-Kyoto rats (WKY) [3]
  effect on SAP: none of these compounds modifies the SAP of WKY rats
[4]
  anti-hypertensive activity / drop in SAP: possess anti-hypertensive activity in spontaneously hypertensive rats (SHR); also recorded: display anti-hypertensive activity in rats

## CC(C)C[C@H](NC(=O)[C@H](Cc1ccccc1)NC(=O)[C@@H]1CCCN1C(=O)[C@H](Cc1cnc[nH]1)NC(=O)[C@H](CC(=O)O)NC(=O)[C@H](C)NC(=O)[C@@H](N)CCCNC(=N)N)C(=O)O [SEQ. ID. No 3, RADHPFL] (H-RADHPFL-OH)
[8]
  ACEI activity in vitro: potent ACEI activity in vitro
Wistar-Kyoto rats (WKY) [3]
  effect on SAP: none of these compounds modifies the SAP of WKY rats
[4]
  anti-hypertensive activity / drop in SAP: possess anti-hypertensive activity in spontaneously hypertensive rats (SHR); also recorded: display anti-hypertensive activity in rats

## CC[C@H](C)[C@H](NC(=O)[C@@H]1CCCN1C(=O)[C@H](Cc1ccc(O)cc1)NC(=O)[C@H](CCCNC(=N)N)NC(=O)[C@H](CCC(=O)O)NC(=O)[C@H](CCC(=O)O)NC(=O)[C@H](C)NC(=O)[C@@H](N)Cc1ccc(O)cc1)C(=O)N[C@@H](CC(C)C)C(=O)O [SEQ. ID. No 6] (H-YAEERYPIL-OH)
[8]
  ACEI activity in vitro: potent ACEI activity in vitro
Wistar-Kyoto rats (WKY) [3]
  effect on SAP: none of these compounds modifies the SAP of WKY rats
[4]
  anti-hypertensive activity / drop in SAP: possess anti-hypertensive activity in spontaneously hypertensive rats (SHR); also recorded: display anti-hypertensive activity in rats
